Legend:
[1] = Solution test: time taken for complete dissolving in ethanol/water; type: physicochemical; settings: 5 g in 95 g ethanol/water (equal weight contents), 20° C., stirred, optical determination
Experimental: The various rates of solution of a solids composition according to the invention according to Example 1a above and forms of I-menthol which are not according to the invention were compared.
For this, in each case 5 g I-menthol or 5 g of the I-menthol-containing solids composition according to the invention according to Example 1a were added to 95 g of a mixture, temperature-controlled at a constant 20° C., of equal weight contents of ethanol and water and the time taken for complete dissolving (optical determination) of the menthol and of the menthol-containing solids composition was determined.
The particular solution test was carried out in a glass beaker having a diameter of 5 cm and a filling height of 7 cm. The contents of the glass beaker were in each case stirred with a 4 cm long magnetic stirring fish at a magnetic stirrer speed of 4 revolutions per second during the solution test. The temperature was monitored with a Pt-100 thermometer, which was immersed 5 cm deep into the liquid, was placed at a distance of 1 cm from the glass beaker wall and simultaneously served as a baffle.
The size of the crystals here corresponded to the typical (commercially available) crystal geometry of natural I-menthol.

[2] = after 24 hours; cited from earlier work
[3] = Storage test for caking or formation of lumps (optical and mechanical flowability check); type: physicochemical; settings: storage times of more than three months
Experimental: In this context, a solid menthol component consisting of bodies in the form of crystals or pressed pieces was employed. The menthol-containing solids composition according to the invention which was investigated remained convenient and reliable to handle and pourable, flowable and meterable over the entire observation period.
This menthol-containing solids composition was packed in a plastic bag in a cube-shaped box and stored at 20° C. (bulk height: 50 cm). Every 14 days, the composition according to the invention was investigated optically and mechanically for its flowability.
I-Menthol (25 kg) in the form of freshly prepared needle-shaped crystals (for the particle distribution, see Example 1) was initially introduced into a mixer and mixed briefly and intensively with various amounts of magnesium oxide (calculated average particle size: 12.8 nm, specific BET surface area: 130 m^2/g, compare Example 1a). The content of magnesium oxide (solid anticaking agent) in the total solids mixture was 0.5 wt. %, 1 wt. %, 2 wt. % or 4 wt. %. The original menthol crystals were comminuted by the mixing operation (compare Example 1a). The menthol-containing solids compositions having various contents of magnesium oxide were each packed in a plastic bag in a cube-shaped box and stored at 20° C. (bulk height: 50 cm). […]

## CC(C)[C@@H]1CC[C@@H](C)C[C@H]1O [Menthol crystals in lump form, obtained by storage of the me] [I-menthol]
[1]
  Time taken for complete dissolving: 280 s

## CC(C)[C@@H]1CC[C@@H](C)C[C@H]1O [Menthol crystals from Example 1, I-menthol]
[1]
  Time taken for complete dissolving: 170 s

## CC(C)[C@@H]1CC[C@@H](C)C[C@H]1O [flaked I-menthol, I-menthol]
[2]
  adhesion and formation of lumps on storage: adhesion and formation of lumps

## CC1CCC(C(C)C)C(O)C1 (stereo not drawn) [Menthol]
[3]
  formation of lumps and caking on storage: gradually form lumps and cake
[1]
  Time taken for complete dissolving: 504 s

## CC(C)[C@@H]1CC[C@@H](C)C[C@H]1O [Crystals of natural menthol, I-menthol]
[1]
  Time taken for complete dissolving: 255 s
